pIC50: −log10 of the molar value.

Data set [1] deals with p38 (Homo sapiens, UniProt Q16539). Kind of data set: p38 in vitro kinase assay (SPA, GST-ATF2 substrate). Format: biochemical. The note with it: preactivated p38. As to the method: (§1) JNK 2 and 3 in vitro assays: JNK3 and/or 2 assays are performed in 96 well MTT plates, by incubation of 0.5 μg of recombinant, pre-activated GST-JNK3 or GST-JNK2 with 1 μg of recombinant, biotinylated GST-c-Jun and 2 μM ^33γ-ATP (2 nCi/μl), in the presence or absence of sulfonamide inhibitors if formula I and in a reaction volume of 50 μl containing 50 mM Tris-HCl, pH 8.0; 10 mM MgCl2; 1 mM Dithiothreitol, and 100 μM NaVO4. The incubation is performed for 120 min. at R.T and stopped upon addition of 200 μl of a solution containing 250 μg of Streptavidine-coated SPA beads (Amersham, Inc.)*, 5 mM EDTA, 0.1% Triton X-100 and 50 μM ATP, in phosphate saline buffer. After incubation for 60 minutes at RT, beads are sedimented by centrifugation at 1500×g for 5 minutes, resuspended in 200 μl of PBS containing 5 mM EDTA, 0.1% Triton X-100 and 50 μM ATP and the radioactivity measured in a scintillation β counter, following sedimentation of the beads as described above. By substituting GST-c Jun for biotinylated GST-1ATF2 or myelin basic protein, this assay can be used to measure inhibition of preactivated p38 and ERK MAP Kinases, respectively.
(§2) The values indicated in respect of JNK2 and 3, p38 and ERK2 refer to the IC50 (μM), i.e. the amount necessary to achieve 50% inhibition of said target (e.g. JNK2). From the above table it could be derived that said test compounds according to formula I do have a significant effect both on JNK2 and 3, but virtually no effect onto p38 and ERK2, thus delivering a quite selective inhibitory effect.

In data set [2] the target is GST-JNK2 (Homo sapiens, UniProt P45984). Kind of data set: JNK2 in vitro assay (SPA, GST-c-Jun phosphorylation). Format: biochemical. The note with it: recombinant pre-activated GST-JNK2, 2 μM ATP. As to the method: as §1, §2
Data set [3] concerns the target GST-JNK3 (Homo sapiens, UniProt P53779). Kind of data set: JNK3 in vitro assay (SPA, GST-c-Jun phosphorylation). Format: biochemical. The note with it: recombinant pre-activated GST-JNK3, 2 μM ATP. As for the experimental part:
as §1, §2

Data set [4] relates to Hlr c-Jun HeLa cells. Kind of data set: C-Jun reporter assay (MEKK1 induced, Dual-Luciferase). The note with it: Homo sapiens. Format: cell-based. As for the experimental part:
Hlr c-Jun HeLa cells are cultured in DMEM High Glc supplemented with 10% FCS (Sigma), 2 mM Glutamine (Gibco), P/S, Hygromycin b 100 μg/mL and G418 250 μg/mL
The cell suspension are diluted with medium to give about 3.5×10^6 cells/mL and […] of cell suspension are put onto 210 cm culture dishes containing 9 mL of culture medium. The plates are incubated at 37° C. in a humidified atmosphere of 5% CO2 in air
• Control: 0.2 μg pTK Renilla, […] pBluescript KS, 500 μl OPTIMEM (GIBCO), 18 μl Fugene 6 • Induced: 0.1 μg pMEKK1, 0.2 μg pTK Renilla, 5.7 μg pBluescript KS, 500 μl OPTIMEM (GIBCO), 18 μl Fugene 630′ RT
The transfection mixture is added to the plated cells. The plates are incubated over night at 37° C. in a humidified atmosphere of 5% CO2 in air
A 96 wells plate containing 100 μl of culture medium per well is prepared Negative control (vehicle): 2 μl of DMSO is added to the 100 μl (in triplicate). Compound: 2 μl of Hit compound stock dilution are added to the 100 μl (in triplicate). The transfected cells are trypsinised and ressuspend in 12 mL of culture medium. 100 μl of the dilution are added to each of the 96 wells plate.
The plate is incubated over night at 37° C. in a humidified atmosphere of 5% CO2 in air
The medium is removed from the plate and the cells washed two times with 100 μl PBS Completely remove the rinse solution before applying PLB reagent. Dispense into each culture well […] of 1X PLB. Place the culture plates on a rocking platform or orbital shaker with gentle
rocking/shaking to ensure complete and even coverage of the cell monolayer with 1X PLB. Rock the culture plates at room temperature for 15 minutes. Transfer 20 μl of the lysate into a white opaque 96 wells plate. Read in a luminometer. • Inject 50 μl of Luciferase Assay Reagent II wait 5″, read 10″ • Inject 50 μl of Stop & Glo® Reagent wait 5″, read 10″
Check RLU Luciferase/RLU Renilla*1000
On the technique in general: In a reporter assay the amount or activity of a reporter protein is the signal.

Data set [5] has as its target ERK2 (Homo sapiens, UniProt P28482). The data set is described as follows: ERK2 in vitro kinase assay (SPA, myelin basic protein substrate). Format: biochemical. To be noted: preactivated ERK. As to the method:
as §1, §2

In data set [6] the test system is IL-2 release by Jurkat cells. Kind of data set: IL-2 release assay (PMA+Ionomycine stimulated, ELISA). Format: cell-based. To be noted: Homo sapiens, 24 hours, read-out: % Inhibition of IL2 Production @ 3 uM. As to the method: Jurkat cells, a human T cell leukemia cell line (American Type Culture Collection # TIB 152) were cultured in RPMI 1640 medium (Gibco, BRL) supplemented with 10% of heatactivated FCS, Glutamine and Penstrep. The cell suspension in the medium is diluted to give 2.10^6 cells/mL. The cells were plated (2.10^5 cells/well) on a 96-well plate containing different concentration of test compound (final concentration of compounds, 10, 3, 1, 0.3, 0.1 μM). This mixture is incubated 30 minutes at 37° C. in a humidified CO2 atmosphere. Cells were then treated with 10 ul PMA+Ionomycine (0.1 μM and 1 μM final concentration) in all wells except negative control. In wells without compounds, 10 μl of RPMI 2% DMSO (=0.1% final) is added. Cells are incubated 24 hours at 37° C. and then the supernatant harvested (freeze at −20° C. if not used the same day) prior to performing IL-2 ELISA test on the supernatant.
IL-2 release into the medium by PMA+Iono-stimulated Jurkat cells, in presence or absence of test compounds is assayed by ELISA. Following the procedure described below
Transfer 100 μl capture antibody diluted in PBS at 5 μg/mL into a 96 well ELISA plate and incubate overnight at room temperature.
Aspirate each well and wash 3 times with Wash buffer. After the last wash, damp the plate.
1. Saturate with 200 μl PBS-10% FCS. Incubate 1 hour at room temperature.
2. Repeat the wash step 2.
• 1. Add 100 μl of sample or standard (2000, 1000, 500, 250, 125, 62.5, 31.25 pg/mL) and incubate 2 hours at room temperature. • 2. Wash 3 times. • 3. Add 100 μl of biotinylated anti-human IL-2 at 12.5 ng/mL. Incubate 2 hours at room temperature. • 4. Wash 3 times. • 5. Add 100 μl streptavidin-HRP (Zymed #43-4323) at 1:10,000. Incubate 30 minutes at room temperature. • 6. Wash 3 times • 7. Add 100 μl substrate solution (citric acid/Na2HPO4 (1:1)+H2O2 1:2000+OPD). Incubate 20-30 minutes at room temperature. • 8. Add 50 μl of stop solution to each well. • 9. Determine optical density using a microtiter plate reader set to 450 nm with correction at 570 nm.
Background: In an ELISA, binding on a coated surface is turned into a signal by an enzyme label.

Chain of GST-JNK2 (P45984 whole entry): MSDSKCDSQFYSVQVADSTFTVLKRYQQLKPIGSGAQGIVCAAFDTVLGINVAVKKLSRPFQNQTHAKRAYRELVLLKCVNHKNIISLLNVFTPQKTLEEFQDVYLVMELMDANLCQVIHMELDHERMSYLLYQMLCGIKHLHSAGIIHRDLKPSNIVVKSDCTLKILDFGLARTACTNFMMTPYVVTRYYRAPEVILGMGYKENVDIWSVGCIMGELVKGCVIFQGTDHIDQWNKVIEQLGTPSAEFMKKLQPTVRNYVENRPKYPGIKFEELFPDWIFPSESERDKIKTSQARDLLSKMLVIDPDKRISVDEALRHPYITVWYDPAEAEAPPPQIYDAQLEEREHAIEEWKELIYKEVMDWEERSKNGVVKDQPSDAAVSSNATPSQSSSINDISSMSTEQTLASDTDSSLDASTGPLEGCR
Chain of GST-JNK3 (P53779 whole entry): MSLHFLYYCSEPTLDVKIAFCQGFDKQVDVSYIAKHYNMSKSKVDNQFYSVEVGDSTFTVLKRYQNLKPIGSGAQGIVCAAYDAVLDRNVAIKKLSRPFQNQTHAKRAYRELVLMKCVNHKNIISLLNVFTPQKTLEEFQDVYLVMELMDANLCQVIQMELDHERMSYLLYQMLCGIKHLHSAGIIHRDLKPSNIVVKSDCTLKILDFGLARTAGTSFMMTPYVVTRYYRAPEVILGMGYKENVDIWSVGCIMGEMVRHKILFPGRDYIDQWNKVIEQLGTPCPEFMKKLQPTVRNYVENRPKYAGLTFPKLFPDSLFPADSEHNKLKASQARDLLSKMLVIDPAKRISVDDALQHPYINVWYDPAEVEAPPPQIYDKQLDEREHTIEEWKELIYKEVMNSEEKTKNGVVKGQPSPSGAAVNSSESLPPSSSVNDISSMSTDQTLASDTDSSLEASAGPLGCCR
Chain of ERK2 (P28482 whole entry, species assumed): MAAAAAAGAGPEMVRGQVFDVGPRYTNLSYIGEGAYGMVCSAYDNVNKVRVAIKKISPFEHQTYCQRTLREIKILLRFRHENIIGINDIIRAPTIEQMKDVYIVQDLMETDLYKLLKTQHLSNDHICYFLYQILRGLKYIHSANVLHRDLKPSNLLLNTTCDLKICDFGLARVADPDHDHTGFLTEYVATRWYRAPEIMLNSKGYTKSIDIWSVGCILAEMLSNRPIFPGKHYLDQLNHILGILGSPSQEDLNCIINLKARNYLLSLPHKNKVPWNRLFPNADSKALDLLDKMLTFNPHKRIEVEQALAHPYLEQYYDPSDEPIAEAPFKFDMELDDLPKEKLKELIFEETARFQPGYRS
Chain of p38 (Q16539 whole entry): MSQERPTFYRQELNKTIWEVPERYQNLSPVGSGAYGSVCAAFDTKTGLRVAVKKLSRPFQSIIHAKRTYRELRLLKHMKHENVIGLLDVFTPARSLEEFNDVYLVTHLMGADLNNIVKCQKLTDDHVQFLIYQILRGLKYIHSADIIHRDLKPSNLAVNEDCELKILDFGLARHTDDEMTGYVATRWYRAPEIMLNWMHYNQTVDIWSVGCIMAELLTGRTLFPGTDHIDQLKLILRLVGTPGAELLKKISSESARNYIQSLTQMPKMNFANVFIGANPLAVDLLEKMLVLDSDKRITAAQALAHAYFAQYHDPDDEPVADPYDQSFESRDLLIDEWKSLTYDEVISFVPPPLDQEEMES

As usually defined, the pIC50 is the negative decadic logarithm of the IC50, by convention in mol/L. As usually defined, the inhibition is the percentage by which the read-out fell short of the control. For the compound `O=C(NCc1ccc(S(=O)(=O)NNC(=O)c2csc(-c3ccc(C4SCCS4)cc3)n2)s1)c1ccc(Cl)cc1` [Example 1, 4-chloro-N-[(5-{[2-({2-[4-(1,3-dithiolan-2-yl)phenyl]-1,3-thiazol-4-yl}carbonyl)-hydrazino]sulfonyl}thien-2-yl)methyl]benzamide], the pIC50 in data set [1] was less than 4.52; in data set [2], 6.43; in data set [3], 6.68; in data set [5], less than 4.52. The inhibition at 10 µM in data set [4] was more than 20%. Moreover, the inhibition at 3 µM in data set [6] was more than 30%.
Take `O=C(NCc1ccc(S(=O)(=O)NNC(=O)c2csc(COc3ccccc3Cl)n2)s1)c1ccc(Cl)cc1` [Example 13, 4-chloro-N-[(5-{[2-({2-[(2-chlorophenoxy)methyl]-1,3-thiazol-4-y1}carbonyl)hydrazino]sulfonyl}thien-2-yl)methyl]benzamide]: the pIC50 in data set [1] is less than 4.52; in data set [2] it was 6.01; in data set [3], 6.51; in data set [5] it was less than 4.52. Also, in data set [4], the inhibition at 10 µM was more than 20%. Further, the inhibition at 3 µM in data set [6] is more than 30%.
In general, melting point refers to the temperature of the solid-liquid transition. The compound `O=C(CCCNc1ncc(C(F)(F)F)cc1Cl)NNS(=O)(=O)c1ccc(CNC(=O)c2ccccc2O)s1` [Example 20, N-[(5-{[2-(4-{[3-chloro-5-(trifluoromethyl)pyridin-2-yl]amino}butanoyl)hydrazino]sulfonyl}thien-2-yl)methyl]-2-hydroxybenzamide] yielded a melting point of 174.5 to 175.5 °C.
Regarding `O=C(CCCNc1ncc(C(F)(F)F)cc1Cl)NNS(=O)(=O)c1ccc(CNC(=O)c2ccc[nH]c2=O)s1` [Example 75, N-[(5-{[2-(4-{[3-chloro-5-(trifluoromethyl)pyridin-2-yl]amino}butanoyl)hydrazino]sulfonyl}thien-2-yl)methyl]-2-oxo-1,2-dihydropyridine-3-carboxamide], the pIC50 is less than 4.52 in data set [1], 6.25 in data set [2], 6.39 in data set [3] and less than 4.52 in data set [5]. This compound had an inhibition at 10 µM in data set [4] of more than 20%. The inhibition at 3 µM in data set [6] is more than 30%.
`O=C(CCCNc1ncc(C(F)(F)F)cc1Cl)NNS(=O)(=O)c1ccc(CNC(=O)c2ccc(Cl)cc2)cc1` [Example 80, 4-chloro-N-(4-{[2-(4-{[3-chloro-5-(trifluoromethyl)pyridin-2-yl]amino}butanoyl)hydrazino]sulfonyl}benzyl)benzamide]: the pIC50 in data set [1] was less than 4.52; in data set [2], 5.99; in data set [3], 6.60; in data set [5] it was less than 4.52. The same compound registered an inhibition at 10 µM in data set [4] of more than 20%. For the same compound, the inhibition at 3 µM in data set [6] was more than 30%.

The values are drawn from patent publication US7432286B1, “Pharmaceutically active sulfonyl hydrazide derivatives” (Laboratories Serono SA, priority 1999, dated 2008).
